This is an account of results in ChEMBL document CHEMBL5465560, “Selectivity Literature for EUbOPEN Chemogenomic Library” (2024).

Assay [1] concerns the target T1, Muscarinic acetylcholine receptor M1 (Homo sapiens) (UniProt P11229).
T1 sequence (whole entry): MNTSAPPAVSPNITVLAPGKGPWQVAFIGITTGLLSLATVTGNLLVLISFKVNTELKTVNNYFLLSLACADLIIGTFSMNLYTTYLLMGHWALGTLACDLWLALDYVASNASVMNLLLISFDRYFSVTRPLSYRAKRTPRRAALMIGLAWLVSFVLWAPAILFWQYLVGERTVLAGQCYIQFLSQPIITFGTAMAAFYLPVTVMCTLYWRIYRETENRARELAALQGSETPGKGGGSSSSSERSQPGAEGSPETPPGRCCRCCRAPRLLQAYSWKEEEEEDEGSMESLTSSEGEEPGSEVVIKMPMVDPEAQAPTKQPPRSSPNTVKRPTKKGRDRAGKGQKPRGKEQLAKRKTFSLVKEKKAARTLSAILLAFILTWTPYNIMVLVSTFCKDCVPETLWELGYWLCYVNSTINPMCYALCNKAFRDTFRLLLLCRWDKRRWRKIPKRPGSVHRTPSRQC
Put plainly: Selectivity interaction (GPCR panel (PDSP screen)) EUB0001079a CHRM1. To be noted: at 10 µM.

For assay [2], the target named is Tyrosine-protein kinase Fes/Fps (Homo sapiens) (UniProt P07332). Put plainly: Selectivity interaction (KinomeScan (DiscoverX)) EUB0000092b FES. To be noted: at 10 µM.
Sequence of Tyrosine-protein kinase Fes/Fps (Homo sapiens) (P07332 whole entry): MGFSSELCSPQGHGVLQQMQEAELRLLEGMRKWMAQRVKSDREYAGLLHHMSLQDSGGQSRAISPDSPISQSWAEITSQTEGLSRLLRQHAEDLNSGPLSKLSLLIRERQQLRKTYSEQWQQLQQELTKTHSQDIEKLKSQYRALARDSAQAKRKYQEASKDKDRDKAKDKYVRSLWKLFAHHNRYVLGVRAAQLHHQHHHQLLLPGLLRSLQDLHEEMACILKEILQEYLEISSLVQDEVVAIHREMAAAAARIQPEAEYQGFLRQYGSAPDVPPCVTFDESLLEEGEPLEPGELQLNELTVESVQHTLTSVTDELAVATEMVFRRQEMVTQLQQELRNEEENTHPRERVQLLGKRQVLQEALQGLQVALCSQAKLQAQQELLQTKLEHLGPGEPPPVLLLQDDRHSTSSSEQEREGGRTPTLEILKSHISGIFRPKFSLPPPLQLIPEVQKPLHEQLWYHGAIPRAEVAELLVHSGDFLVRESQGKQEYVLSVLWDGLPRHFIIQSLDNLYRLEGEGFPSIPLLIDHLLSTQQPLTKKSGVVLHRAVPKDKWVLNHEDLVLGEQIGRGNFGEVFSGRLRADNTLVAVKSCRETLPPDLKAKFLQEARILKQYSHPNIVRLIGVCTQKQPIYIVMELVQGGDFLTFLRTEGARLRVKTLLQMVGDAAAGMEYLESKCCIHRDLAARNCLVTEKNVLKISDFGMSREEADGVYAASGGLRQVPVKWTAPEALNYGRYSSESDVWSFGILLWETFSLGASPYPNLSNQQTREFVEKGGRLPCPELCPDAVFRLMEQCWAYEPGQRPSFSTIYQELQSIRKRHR
Assay [3] has as its target Tyrosine-protein kinase Srms (Homo sapiens) (UniProt Q9H3Y6). Put plainly: Selectivity interaction (KinomeScan (DiscoverX)) EUB0000655a SRMS. As to conditions: at 10 µM.
The target of assay [4] is T2, Serine/threonine-protein kinase ULK2 (Homo sapiens) (UniProt Q8IYT8).
T2 sequence (whole entry): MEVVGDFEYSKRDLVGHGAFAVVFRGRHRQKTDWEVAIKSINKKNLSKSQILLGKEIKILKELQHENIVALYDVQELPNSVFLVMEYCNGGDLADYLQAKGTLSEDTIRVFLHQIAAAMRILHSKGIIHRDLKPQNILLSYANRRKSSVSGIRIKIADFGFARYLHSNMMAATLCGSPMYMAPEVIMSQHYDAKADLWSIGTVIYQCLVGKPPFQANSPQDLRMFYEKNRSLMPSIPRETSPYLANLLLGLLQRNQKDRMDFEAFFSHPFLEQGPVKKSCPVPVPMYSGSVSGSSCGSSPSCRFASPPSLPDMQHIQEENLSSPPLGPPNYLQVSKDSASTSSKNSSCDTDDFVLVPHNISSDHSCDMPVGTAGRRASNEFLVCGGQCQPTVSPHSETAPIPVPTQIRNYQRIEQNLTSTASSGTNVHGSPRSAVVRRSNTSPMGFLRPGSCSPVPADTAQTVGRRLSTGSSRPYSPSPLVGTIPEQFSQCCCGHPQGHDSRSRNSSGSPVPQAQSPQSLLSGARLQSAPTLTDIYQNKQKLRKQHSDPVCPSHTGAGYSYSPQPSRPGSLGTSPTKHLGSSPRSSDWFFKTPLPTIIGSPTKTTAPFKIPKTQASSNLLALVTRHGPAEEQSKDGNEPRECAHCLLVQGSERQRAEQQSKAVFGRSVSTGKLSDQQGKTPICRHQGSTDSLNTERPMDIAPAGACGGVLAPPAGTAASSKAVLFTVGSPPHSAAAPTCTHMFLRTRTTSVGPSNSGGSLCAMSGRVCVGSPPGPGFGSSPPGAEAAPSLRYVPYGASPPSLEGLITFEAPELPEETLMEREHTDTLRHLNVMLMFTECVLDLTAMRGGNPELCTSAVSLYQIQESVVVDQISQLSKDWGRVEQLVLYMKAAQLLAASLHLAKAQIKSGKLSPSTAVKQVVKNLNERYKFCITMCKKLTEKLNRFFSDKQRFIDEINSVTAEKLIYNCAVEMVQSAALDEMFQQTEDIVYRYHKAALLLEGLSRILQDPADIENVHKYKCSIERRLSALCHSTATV
Put plainly: Selectivity interaction (KinomeScan (DiscoverX)) EUB0000045b ULK2.

For assay [5], the target named is Serine/threonine-protein kinase 10 (Homo sapiens) (UniProt O94804). As to the kind of experiment: Selectivity interaction (KinomeScan (DiscoverX)) EUB0000229b STK10. As to conditions: at 10 µM.
Sequence of Serine/threonine-protein kinase 10 (Homo sapiens) (O94804 whole entry, looked up): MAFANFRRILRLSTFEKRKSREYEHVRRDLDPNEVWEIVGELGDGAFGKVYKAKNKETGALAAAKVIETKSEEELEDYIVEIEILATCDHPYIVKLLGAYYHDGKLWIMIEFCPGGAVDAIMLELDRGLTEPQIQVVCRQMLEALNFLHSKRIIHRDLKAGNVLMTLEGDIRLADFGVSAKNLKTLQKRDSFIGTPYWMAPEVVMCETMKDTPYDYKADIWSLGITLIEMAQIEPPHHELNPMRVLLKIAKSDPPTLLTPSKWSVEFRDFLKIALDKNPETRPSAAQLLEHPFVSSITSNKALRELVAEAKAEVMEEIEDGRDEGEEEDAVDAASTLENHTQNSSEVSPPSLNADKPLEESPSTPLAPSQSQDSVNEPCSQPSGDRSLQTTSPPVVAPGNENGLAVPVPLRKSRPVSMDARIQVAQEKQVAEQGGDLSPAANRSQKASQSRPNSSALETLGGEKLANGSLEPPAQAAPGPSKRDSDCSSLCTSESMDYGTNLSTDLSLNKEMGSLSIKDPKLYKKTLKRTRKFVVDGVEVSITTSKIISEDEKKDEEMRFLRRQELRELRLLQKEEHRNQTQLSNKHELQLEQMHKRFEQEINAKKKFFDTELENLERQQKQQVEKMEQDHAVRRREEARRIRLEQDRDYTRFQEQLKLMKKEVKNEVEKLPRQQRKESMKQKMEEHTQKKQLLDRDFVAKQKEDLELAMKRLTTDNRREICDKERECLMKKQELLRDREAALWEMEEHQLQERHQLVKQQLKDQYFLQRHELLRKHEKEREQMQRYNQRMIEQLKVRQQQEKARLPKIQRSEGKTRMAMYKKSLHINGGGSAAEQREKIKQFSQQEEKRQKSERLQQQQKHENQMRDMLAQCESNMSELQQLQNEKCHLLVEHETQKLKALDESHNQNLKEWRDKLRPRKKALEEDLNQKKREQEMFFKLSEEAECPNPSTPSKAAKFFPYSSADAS
Assay [6] concerns the target T3, EKC/KEOPS complex subunit TP53RK (Homo sapiens) (UniProt Q96S44).
T3 sequence (whole entry): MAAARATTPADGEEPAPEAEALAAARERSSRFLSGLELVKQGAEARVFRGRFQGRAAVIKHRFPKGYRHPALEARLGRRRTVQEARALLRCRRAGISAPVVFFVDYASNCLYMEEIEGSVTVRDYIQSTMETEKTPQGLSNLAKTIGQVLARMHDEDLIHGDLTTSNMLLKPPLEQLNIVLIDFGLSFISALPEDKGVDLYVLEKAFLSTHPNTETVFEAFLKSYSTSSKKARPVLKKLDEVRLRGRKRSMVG
Put plainly: Selectivity interaction (ActivX KiNativ screen (ex vivo kinase selectivity in human PBMCs)) EUB0001619a TP53RK. Type of assay: cell-based. To be noted: PBMC, at 1 µM.

Sequence of Tyrosine-protein kinase Srms (Homo sapiens) (Q9H3Y6 whole entry): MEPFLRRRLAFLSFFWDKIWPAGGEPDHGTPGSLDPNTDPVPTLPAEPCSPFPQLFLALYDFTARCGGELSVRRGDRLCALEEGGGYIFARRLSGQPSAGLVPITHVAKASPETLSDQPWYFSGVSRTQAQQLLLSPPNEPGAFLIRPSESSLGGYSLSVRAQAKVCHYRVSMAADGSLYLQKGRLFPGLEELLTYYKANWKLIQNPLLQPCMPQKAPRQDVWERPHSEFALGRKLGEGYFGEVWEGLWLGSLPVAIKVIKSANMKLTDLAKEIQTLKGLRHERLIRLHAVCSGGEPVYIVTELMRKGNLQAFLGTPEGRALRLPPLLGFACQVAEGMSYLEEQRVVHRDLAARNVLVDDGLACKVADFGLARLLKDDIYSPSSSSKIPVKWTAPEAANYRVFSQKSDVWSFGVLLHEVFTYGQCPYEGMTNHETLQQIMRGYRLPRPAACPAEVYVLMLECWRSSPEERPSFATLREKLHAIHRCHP

Turning to `Nc1cnc(N2CCc3cc(S(=O)(=O)Nc4c(F)cc(Cl)cc4F)cc(N4CCCC4=O)c32)nc1` [TP-020n], the % of inhibition in assay [1] is -9.48%.
With `CCC(=O)N1CCN(c2ccc(-n3c(=O)ccc4cnc5ccc(-c6cnc7ccccc7c6)cc5c43)cc2C(F)(F)F)CC1`, the % of control in assay [2] is 41%.
Compound `CN(C)CCOc1ccc(-c2nc(-c3ccncc3)c(-c3ccc4c(c3)CC/C4=N\O)[nH]2)cc1` had a % of control in assay [3] of 74%.
As for `C=CC(=O)Nc1cc(-n2c(=O)ccc3cnc4ccc(-c5ccc(NS(C)(=O)=O)cc5)cc4c32)ccc1C`, the % of control in assay [4] (at 1 µM) came to 100%; in assay [4] (at 10 µM) it was 92%.
For the compound `COc1cc(N(C)c2ccnc3ccc(C(F)(F)F)cc23)cc(OC)c1OC`, the % binding in assay [5] stood at 84%.
For the compound `N#Cc1cccc(-c2c[nH]c3ncnc(N4CCOCC4)c23)c1`, the % of inhibition in assay [6] was -4%.
